# Reference: ChEMBL document CHEMBL5113453, “Design, synthesis, and biological evaluation of a new series of pyrazole derivatives: Discovery of potent and selective JNK3 kinase inhibitors” (Bioorg Med Chem, 2022)
# Experiments:
# SK-MEL-28 = assay: Antiproliferative activity against human SK-MEL-28 cells measured after 48 hrs by SRB assay; assay type: functional, cell-based
# HL-60(TB) = assay: Antiproliferative activity against human HL-60(TB) cells measured after 48 hrs by SRB assay; assay type: functional, cell-based
# NCI-H226 = assay: Antiproliferative activity against human NCI-H226 cells measured after 48 hrs by SRB assay; assay type: functional, cell-based
# HOP-62 = assay: Antiproliferative activity against human HOP-62 cells measured after 48 hrs by SRB assay; assay type: functional, cell-based
# SK-MEL-2 = assay: Antiproliferative activity against human SK-MEL-2 cells measured after 48 hrs by SRB assay; assay type: functional, cell-based
# SF-295 = assay: Antiproliferative activity against human SF-295 cells measured after 48 hrs by SRB assay; assay type: functional, cell-based
# HCT-15 = assay: Antiproliferative activity against human HCT-15 cells measured after 48 hrs by SRB assay; assay type: functional, cell-based
# NCI-H23 = assay: Antiproliferative activity against human NCI-H23 cells measured after 48 hrs by SRB assay; assay type: functional, cell-based
# NCI-H522 = assay: Antiproliferative activity against human NCI-H522 cells measured after 48 hrs by SRB assay; assay type: functional, cell-based
# DU-145 = assay: Antiproliferative activity against human DU-145 cells measured after 48 hrs by SRB assay; assay type: functional, cell-based
# U-251 = assay: Antiproliferative activity against human U-251 cells measured after 48 hrs by SRB assay; assay type: functional, cell-based
# A498 = assay: Antiproliferative activity against human A498 cells measured after 48 hrs by SRB assay; assay type: functional, cell-based
# SW-620 = assay: Antiproliferative activity against human SW-620 cells measured after 48 hrs by SRB assay; assay type: functional, cell-based
# SF-268 = assay: Antiproliferative activity against human SF-268 cells measured after 48 hrs by SRB assay; assay type: functional, cell-based
# SN12C = assay: Antiproliferative activity against human SN12C cells measured after 48 hrs by SRB assay; assay type: functional, cell-based
# COLO 205 = assay: Antiproliferative activity against human COLO 205 cells measured after 48 hrs by SRB assay; assay type: functional, cell-based
# A549 = assay: Antiproliferative activity against human A549 cells measured after 48 hrs by SRB assay; assay type: functional, cell-based
# [1] = molecular target: T1, Mitogen-activated protein kinase 10 (Homo sapiens, UniProt P53779); assay: Inhibition of JNK3 (unknown origin)
# SNB-19 = assay: Antiproliferative activity against human SNB-19 cells measured after 48 hrs by SRB assay; assay type: functional, cell-based
# [2] = molecular target: T1, Mitogen-activated protein kinase 10; assay: Inhibition of JNK3 (unknown origin) at 1 uM relative to control
# RPMI-8226 = assay: Antiproliferative activity against human RPMI-8226 cells measured after 48 hrs by SRB assay; assay type: functional, cell-based
# HCT-116 = assay: Antiproliferative activity against human HCT-116 cells measured after 48 hrs by SRB assay; assay type: functional, cell-based
# ACHN = assay: Antiproliferative activity against human ACHN cells measured after 48 hrs by SRB assay; assay type: functional, cell-based
# HT-29 = assay: Antiproliferative activity against human HT-29 cells measured after 48 hrs by SRB assay; assay type: functional, cell-based
# SK-OV-3 = assay: Antiproliferative activity against human SK-OV-3 cells measured after 48 hrs by SRB assay; assay type: functional, cell-based
# SK-MEL-5 = assay: Antiproliferative activity against human SK-MEL-5 cells measured after 48 hrs by SRB assay; assay type: functional, cell-based
# NCI-H460 = assay: Antiproliferative activity against human NCI-H460 cells measured after 48 hrs by SRB assay; assay type: functional, cell-based
# BT-549 = assay: Antiproliferative activity against human BT-549 cells measured after 48 hrs by SRB assay; assay type: functional, cell-based
# WI-38 = assay: Antiproliferative activity against human WI-38 cells measured by MTT assay; assay type: functional, cell-based
# UO-31 = assay: Antiproliferative activity against human UO-31 cells measured after 48 hrs by SRB assay; assay type: functional, cell-based
# UACC-62 = assay: Antiproliferative activity against human UACC-62 cells measured after 48 hrs by SRB assay; assay type: functional, cell-based
# OVCAR-5 = assay: Antiproliferative activity against human OVCAR-5 cells measured after 48 hrs by SRB assay; assay type: functional, cell-based
# K562 = assay: Antiproliferative activity against human K562 cells measured after 48 hrs by SRB assay; assay type: functional, cell-based
# OVCAR-8 = assay: Antiproliferative activity against human OVCAR-8 cells measured after 48 hrs by SRB assay; assay type: functional, cell-based
# T47D = assay: Antiproliferative activity against human T47D cells measured after 48 hrs by SRB assay; assay type: functional, cell-based
# OVCAR-4 = assay: Antiproliferative activity against human OVCAR-4 cells measured after 48 hrs by SRB assay; assay type: functional, cell-based
# MDA-MB-468 = assay: Antiproliferative activity against human MDA-MB-468 cells measured after 48 hrs by SRB assay; assay type: functional, cell-based
# MOLT-4 = assay: Antiproliferative activity against human MOLT-4 cells measured after 48 hrs by SRB assay; assay type: functional, cell-based
# HOP-92 = assay: Antiproliferative activity against human HOP-92 cells measured after 48 hrs by SRB assay; assay type: functional, cell-based
# T1 sequence (P53779 whole entry): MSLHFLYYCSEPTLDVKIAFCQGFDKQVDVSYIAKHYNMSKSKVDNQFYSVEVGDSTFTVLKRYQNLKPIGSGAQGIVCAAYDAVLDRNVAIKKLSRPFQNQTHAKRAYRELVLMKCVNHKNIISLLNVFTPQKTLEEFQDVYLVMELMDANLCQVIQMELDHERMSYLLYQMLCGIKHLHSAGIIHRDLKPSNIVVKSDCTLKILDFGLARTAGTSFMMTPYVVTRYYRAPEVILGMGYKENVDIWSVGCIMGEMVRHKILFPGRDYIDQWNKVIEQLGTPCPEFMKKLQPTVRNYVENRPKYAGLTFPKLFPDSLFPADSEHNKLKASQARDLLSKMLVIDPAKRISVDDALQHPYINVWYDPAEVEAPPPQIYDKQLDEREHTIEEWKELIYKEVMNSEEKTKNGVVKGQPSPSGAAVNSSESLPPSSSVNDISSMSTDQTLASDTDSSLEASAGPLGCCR
structure (smiles),measurement,setting,value
O=C(Nc1ccc(Cl)c(C(F)(F)F)c1)N1CCN(c2cc(-c3cn(-c4ccccc4)nc3-c3cccc(O)c3)ccn2)CC1,IC50,"SK-MEL-28; SK-MEL-28, 48 h",3.41 µM
same,TGI,"SK-MEL-28; SK-MEL-28, time 48 hrs",10.3 µM
same,IC50,"HL-60(TB); HL-60, 48 h",2.34 µM
same,TGI,"HL-60(TB); HL-60, time 48 hrs",8.58 µM
same,IC50,"NCI-H226; NCI-H226, 48 h",3.22 µM
same,TGI,"NCI-H226; NCI-H226, time 48 hrs",15.8 µM
same,IC50,"HOP-62; HOP-62, 48 h",6.28 µM
same,TGI,"HOP-62; HOP-62, time 48 hrs",> 22 µM
same,IC50,"SK-MEL-2; SK-MEL-2, 48 h",3.54 µM
same,TGI,"SK-MEL-2; SK-MEL-2, time 48 hrs",7.57 µM
same,IC50,"SF-295; SF-295, 48 h",1.5 µM
same,TGI,"SF-295; SF-295, time 48 hrs",7.25 µM
same,IC50,"HCT-15; HCT-15, 48 h",2.84 µM
same,TGI,"HCT-15; HCT-15, time 48 hrs",> 22 µM
same,IC50,"NCI-H23; NCI-H23, 48 h",3.69 µM
same,TGI,"NCI-H23; NCI-H23, time 48 hrs",14.9 µM
same,IC50,"NCI-H522; NCI-H522, 48 h",2.77 µM
same,TGI,"NCI-H522; NCI-H522, time 48 hrs",9.26 µM
same,IC50,"DU-145; DU-145, 48 h",7.15 µM
same,TGI,"DU-145; DU-145, time 48 hrs",> 22 µM
same,IC50,"U-251; U-251, 48 h",4.23 µM
same,TGI,"U-251; U-251, time 48 hrs",> 22 µM
same,IC50,"A498; A498, 48 h",4.72 µM
same,TGI,"A498; A498, time 48 hrs",21 µM
same,IC50,"SW-620; SW-620, 48 h",4.78 µM
same,TGI,"SW-620; SW-620, time 48 hrs",> 22 µM
same,IC50,"SF-268; SF-268, 48 h",3.3 µM
same,TGI,"SF-268; SF-268, time 48 hrs",> 22 µM
same,IC50,SN12C; 48 h,3.21 µM
same,TGI,SN12C; time 48 hrs,> 22 µM
same,IC50,"COLO 205; COLO 205, 48 h",3.01 µM
same,TGI,"COLO 205; COLO 205, time 48 hrs",9.39 µM
same,IC50,"A549; A549, 48 h",4.34 µM
same,TGI,"A549; A549, time 48 hrs",> 22 µM
same,IC50,[1],> 1 µM
same,IC50,"SNB-19; SNB-19, 48 h",4.06 µM
same,TGI,"SNB-19; SNB-19, time 48 hrs",> 22 µM
same,inhibition,[2],14%
same,IC50,"RPMI-8226; RPMI-8226, 48 h",1.21 µM
same,TGI,"RPMI-8226; RPMI-8226, time 48 hrs",11.8 µM
same,IC50,"HCT-116; HCT-116, 48 h",1.86 µM
same,TGI,"HCT-116; HCT-116, time 48 hrs",> 22 µM
same,IC50,ACHN; 48 h,3 µM
same,TGI,ACHN; time 48 hrs,17 µM
same,IC50,"HT-29; HT-29, 48 h",4.1 µM
same,TGI,"HT-29; HT-29, time 48 hrs",> 22 µM
same,IC50,"SK-OV-3; SK-OV-3, 48 h",6.43 µM
same,TGI,"SK-OV-3; SK-OV-3, time 48 hrs",> 22 µM
same,IC50,"SK-MEL-5; SK-MEL-5, 48 h",2.58 µM
same,TGI,"SK-MEL-5; SK-MEL-5, time 48 hrs",5.45 µM
same,IC50,"NCI-H460; NCI-H460, 48 h",2.47 µM
same,TGI,"NCI-H460; NCI-H460, time 48 hrs",> 22 µM
same,IC50,"BT-549; BT-549, 48 h",3.33 µM
same,TGI,"BT-549; BT-549, time 48 hrs",7.99 µM
same,IC50,WI-38,> 20 µM
same,IC50,"UO-31; UO-31, 48 h",3 µM
same,TGI,"UO-31; UO-31, time 48 hrs",> 22 µM
same,IC50,"UACC-62; UACC-62, 48 h",2.68 µM
same,TGI,"UACC-62; UACC-62, time 48 hrs",5.77 µM
same,IC50,"OVCAR-5; OVCAR-5, 48 h",4.13 µM
same,TGI,"OVCAR-5; OVCAR-5, time 48 hrs",10.5 µM
same,IC50,"K562; K562, 48 h",2.13 µM
same,TGI,"K562; K562, time 48 hrs",> 22 µM
same,IC50,"OVCAR-8; OVCAR-8, 48 h",4.72 µM
same,TGI,"OVCAR-8; OVCAR-8, time 48 hrs",> 22 µM
same,IC50,T47D; 48 h,1.13 µM
same,TGI,T47D; time 48 hrs,14.8 µM
same,IC50,"OVCAR-4; OVCAR-4, 48 h",2.02 µM
same,TGI,"OVCAR-4; OVCAR-4, time 48 hrs",> 22 µM
same,IC50,"MDA-MB-468; MDA-MB-468, 48 h",1.03 µM
same,TGI,"MDA-MB-468; MDA-MB-468, time 48 hrs",7.22 µM
same,IC50,"MOLT-4; MOLT-4, 48 h",0.93 µM
same,TGI,"MOLT-4; MOLT-4, time 48 hrs",7.58 µM
same,IC50,"HOP-92; HOP-92, 48 h",2.59 µM
same,TGI,"HOP-92; HOP-92, time 48 hrs",15.9 µM
